This is an account of results in US7960339B2, “Antimicrobial peptides” (Österreichische Akademie der Wissenschaften, priority 2006, dated 2011).

The test system of one test is C. neoformans ATCC 32045. The test is classed as cell-based. Put shortly: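 Fungal inoculum was about 1×10^5 to 5×10^5 CFU/ml in 2×YM broth, added to peptides dispensed at 1 mg/ml to 1 μg/ml in twofold serial dilutions. After 72 hrs at 26° C, relative growth was read as OD620. IC50 values came from sigmoidal curve fitting.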
The next test has as its system LPS S. Minnesota Re595. Briefly: Endpoint LAL activity (Limulus gel-clotting test), inhibition of lipid A-induced LAL enzymatic cascade. It counts as biochemical. The settings on record: sensibility 0.125 EU/ml, peptide:LPS 100:1 (w/w), minimum of 6 tests in triplicate. Here is the method:
(§1) The principle of lipid A-induced pro-inflammatory cytokine activity leading to hemorrhagic dermonecrosis (classical Shwartzmann reaction) was tested in rabbit, an animal model very close to humans in terms of sensitivity to LPS activity, and was compared to the inhibition of the lipid A-induced LAL enzymatic cascade activation leading to clot. Thereby, New Zealand White rabbits were injected in the shaved dorsal region with S. minnesota Re595 lipid A alone or with peptide 1:100 (w/w) (5 μg in 0.2 ml saline buffer; route i.d.). […] Polymyxin B (PmB) was used as a control.

The subject of the next test is LPS Re595. As to the kind of experiment: Local Shwartzmann reaction in rabbit (lipid A-induced hemorrhagic dermonecrosis). It counts as in vivo, New Zealand White rabbits. The following applies: i.d. injection in shaved dorsal region; open necrosis observed after 72-96 hours; minimum 3 injections in minimum 3 rabbits. The procedure: as §1
The test system of the next test is MonoMac6 cells. As to the kind of experiment: Release of TNFα from MonoMac6 cells stimulated by bacteria killed with antibiotics or peptides (ELISA). It counts as cell-based. The settings on record: E. coli strain 0:111 incubated over night with agent, then 15 hours on 10^5 MonoMac6 cells; FIG. 5. Here is the method:
Bacteria can be killed by different antibiotics, targeting different molecules essential for bacterial survival. When Gram-negative bacteria are killed, released LPS can stimulate production of cytokines, such as TNFα, or other inflammatory mediators. Comparison of well-established antimicrobial agents acting through different cellular targets with compounds of this invention were done in the following manner: bacteria (E. coli strain 0:111) were grown in LB medium to the absorbance at 600 nm of 0.4 and diluted 2500 fold in RPMI medium with added glucose. Different concentrations of antibiotics or peptides from this invention were added and incubated over night. 80 μl of cell suspension was added to the 100 μl containing 10^5 MonoMac6 cells and after 15 hours the release of TNFα to the medium was determined using ELISA test.

The subject of another test is E. coli (strain 0:111). Briefly: Antimicrobial assay with peptide immobilized on magnetic particles. It counts as cell-based. The settings on record: over night. Here is the method: Peptide P2-32 (500 μg) was covalently bound to the cyanuric chloride-activated magnetic particles (10 mg) (Chemicell, Product number 1314) using phosphate buffer saline pH=7.5. After mixing the suspension on a shaker for 2 hours at room temperature the blocking buffer (PBS pH=7.5 and 2% ethanolamine) were added and mixed the suspension on a shaker for 30 minutes at room temperatures. The particles were washed twice with PBS. Immobilized peptides were tested against E. coli (strain 0:111) grown in LB medium to the absorbance at 600 nm of 0.4 and diluted 2500 fold in LB medium. Different concentrations of magnetic particles immobilized with peptides were added and incubated over night.

The test system of another test is E. coli LPS. Briefly: Mouse model of acute endotoxemia (LPS plus galactosamine). It counts as in vivo, ICR-CD1 mice. The following applies: 150 μg intraperitoneal immediately after 0.3 μg E. coli LPS + 18 mg galactosamine; monitored until 168 hours. Here is the method: Mice are remarkably resistant to LPS-mediated septic shock. However, the sensitivity of mice to endotoxin can be potentiated by coinjecting LPS with galactosamine. Groups of 16-18 female ICR-CD1 mice of 20-25 g of weight were intraperitoneally injected with 200 μl of pyrogen-free saline containing a mixture of 0.3 μg of E. coli LPS and 18 mg of galactosamine. Previous experiments allowed to determine that such a combination was lethal for 90% (LD90) of the animals 48 h after the injection. Immediately after this challenge, mice received a second intraperitoneal injection at a different site of the abdomen containing 150 μg of the peptide dissolved in 150 μl of 10% DMF pyrogen-free saline. In all the experiments a group of mice was left untreated whereas another group received 150 μg of polymyxin B. Mortality of the animals was monitored at daily intervals until 168 hours postchallenge.

[1] abbreviates: 50% growth inhibition, OD620, 72 hrs at 26° C., 2×YM broth.
Where [2] appears, read: lowest concentration that resulted in 2% growth, OD620, 72 hrs at 26° C., 2×YM broth.

Read-outs that look alike come from different tables or passages of the source. Ends that are not written are not given here. Peptide text beside a SMILES is read from it. * marks the point of attachment. Butanoyl(2,2-Me2) = CCC(C)(C)C(=O)*; Octanoyl(6-Me) = CCC(C)CCCCC(=O)*

`CC[C@H](C)[C@H](NC(=O)[C@H](CC(N)=O)NC(=O)[C@H](CCCNC(=N)N)NC(=O)[C@H](CCC(N)=O)NC(=O)[C@H](Cc1c[nH]c2ccccc12)NC(=O)[C@@H](N)Cc1ccccc1)C(=O)N[C@@H](CCCNC(=N)N)C(=O)N[C@@H](CCCCN)C(=O)N[C@@H](Cc1c[nH]c2ccccc12)C(=O)N[C@@H](CCCNC(=N)N)C(N)=O` [VS1-15, FWQRNIRKWR-NH2] (H-FWQRNIRKWR-NH2): the “average IC50” value in the test with C. neoformans ATCC 32045 (setting [1]) came to 5 µg/mL. Also, the “average MIC” value in the test with C. neoformans ATCC 32045 (setting [2]) worked out at 16 µg/mL. Besides, the “Endpoint LAL activity peptide: LPS Re595 100:1 (w/w)” value (shortened to “Endpoint LAL activity peptide”) in the test with LPS S. Minnesota Re595 is recorded as “NEGATIVE”. Also, in the test with LPS Re595, the “Local Shwartzmann reaction in rabbit peptide: LPS Re595 100:1 (w/w)” value (“Local Shwartzmann reaction” for short) was “NEGATIVE”.
Turning to `CC[C@H](C)[C@H](NC(=O)[C@H](CCCNC(=N)N)NC(=O)[C@H](CCCNC(=N)N)NC(=O)[C@H](CCC(N)=O)NC(=O)[C@H](Cc1c[nH]c2ccccc12)NC(=O)[C@@H](N)Cc1ccccc1)C(=O)N[C@@H](CCCNC(=N)N)C(=O)N[C@@H](CCCNC(=N)N)C(=O)N[C@@H](Cc1c[nH]c2ccccc12)C(=O)N[C@@H](CCCNC(=N)N)C(=O)N[C@@H](CCCNC(=N)N)C(N)=O` [VS1-18, FWQRRIRRWRR-NH2] (H-FWQRRIRRWRR-NH2; N-terminus assumed), the “average IC50” value in the test on C. neoformans ATCC 32045 (setting [1]) stood at 7 µg/mL. Further, in the test with C. neoformans ATCC 32045 (setting [2]), the “average MIC” value is 32 µg/mL. Also, in the test with LPS S. Minnesota Re595, the “Endpoint LAL activity peptide” value is on record as “NEGATIVE”. Besides, the “Local Shwartzmann reaction” value in the test on LPS Re595 is “NEGATIVE”.
`CC[C@H](C)[C@H](NC(=O)[C@H](CCCNC(=N)N)NC(=O)[C@@H](NC(=O)[C@H](CCCNC(=N)N)NC(=O)[C@H](Cc1c[nH]c2ccccc12)NC(=O)[C@H](Cc1ccccc1)NC(=O)[C@@H]1CCCN1)[C@@H](C)CC)C(=O)N[C@@H](CCCNC(=N)N)C(=O)N[C@@H](CCCNC(=N)N)C(N)=O` [VS1-22, PFWRIRIRR-NH2] (H-PFWRIRIRR-NH2; N-terminus assumed): the “average IC50” value with C. neoformans ATCC 32045 (setting [1]) was 2 µg/mL. Further, the “average MIC” value in the test with C. neoformans ATCC 32045 (setting [2]) was found to be 8 µg/mL. Also, in the test on LPS S. Minnesota Re595, the “Endpoint LAL activity peptide” value is “NEGATIVE”. The “Local Shwartzmann reaction” value with LPS Re595 is “NEGATIVE”. The “release of TNFα / stimulation of the monocytes” value in the test with MonoMac6 cells was “significantly inhibited the release of TNFα”.
Regarding `CC[C@H](C)[C@H](NC(=O)[C@H](CC(N)=O)NC(=O)[C@H](CCCNC(=N)N)NC(=O)[C@H](CCC(N)=O)NC(=O)[C@H](Cc1c[nH]c2ccccc12)NC(=O)[C@H](Cc1ccccc1)NC(=O)C(C)(C)CC)C(=O)N[C@@H](CCCNC(=N)N)C(=O)N[C@@H](CCCCN)C(=O)N[C@@H](Cc1c[nH]c2ccccc12)C(=O)N[C@@H](CCCNC(=N)N)C(N)=O` [VS1-42, 2,2-dimethylbutanoyl FWQRNIRKWR-NH2] ({Butanoyl(2,2-Me2)}-FWQRNIRKWR-NH2), in the test with C. neoformans ATCC 32045 (setting [1]), the “average IC50” value turned out to be 6 µg/mL. The “average MIC” value in the test with C. neoformans ATCC 32045 (setting [2]) is 16 µg/mL. Further, in the test on LPS S. Minnesota Re595, the “Endpoint LAL activity peptide” value is recorded as “NEGATIVE”. Besides, the “Local Shwartzmann reaction” value in the test with LPS Re595 is given as “NEGATIVE”.
Regarding `CC[C@H](C)[C@H](NC(=O)[C@H](CCCNC(=N)N)NC(=O)[C@@H](NC(=O)[C@H](CCCNC(=N)N)NC(=O)[C@H](Cc1c[nH]c2ccccc12)NC(=O)[C@H](Cc1ccccc1)NC(=O)[C@@H]1CCCN1C(=O)C(C)(C)CC)[C@@H](C)CC)C(=O)N[C@@H](CCCNC(=N)N)C(=O)N[C@@H](CCCNC(=N)N)C(N)=O` [VS1-52, 2,2-dimethylbutanoyl PFWRIRIRR-NH2] ({Butanoyl(2,2-Me2)}-PFWRIRIRR-NH2), the “average IC50” value in the test on C. neoformans ATCC 32045 (setting [1]) came to 2 µg/mL. The “average MIC” value with C. neoformans ATCC 32045 (setting [2]) worked out at 4 µg/mL. In addition, in the test on LPS S. Minnesota Re595, the “Endpoint LAL activity peptide” value was “NEGATIVE”. Besides, in the test with LPS Re595, the “Local Shwartzmann reaction” value is reported as “NEGATIVE”.
For `CCC(C)CCCCC(=O)N1CCC[C@H]1C(=O)N[C@@H](Cc1ccccc1)C(=O)N[C@@H](Cc1c[nH]c2ccccc12)C(=O)N[C@@H](CCCNC(=N)N)C(=O)N[C@H](C(=O)N[C@@H](CCCNC(=N)N)C(=O)N[C@H](C(=O)N[C@@H](CCCNC(=N)N)C(=O)N[C@@H](CCCNC(=N)N)C(N)=O)[C@@H](C)CC)[C@@H](C)CC` (stereo partly drawn) [VS1-53, 6-methyloctanoyl PFWRIRIRR-NH2] ({Octanoyl(6-Me)}-PFWRIRIRR-NH2), in the test with C. neoformans ATCC 32045 (ATCC 32045, 72 h), the “average IC50” value was 6 µg/mL and the “average MIC” value came out at 16 µg/mL. The “release of TNFα / stimulation of the monocytes” value in the test on MonoMac6 cells is listed as “significantly inhibited the release of TNFα”.
In the case of `O=C(N[C@H](CO)[C@H](O)c1ccc([N+](=O)[O-])cc1)C(Cl)Cl` [chloramphenicol], in the test on MonoMac6 cells, the “release of TNFα / stimulation of the monocytes” value is given as “high stimulation of the monocytes”.
For the compound “FIWRWRWR-NH2 (also: bound to magnetic particles) [Peptide P2-32]”, the bacterial growth result is “not-inhibited” in the test on E. coli (strain 0:111) (0.25 mg immobilized magnetic particles, 100 μl diluted E. coli in LB); “not-inhibited” in the test on E. coli (strain 0:111) (0.5 mg immobilized magnetic particles, 100 μl diluted E. coli in LB); “inhibited” in the test on E. coli (strain 0:111) (1 mg immobilized magnetic particles, 100 μl diluted E. coli in LB); “inhibited” with E. coli (strain 0:111) (2.5 mg immobilized magnetic particles, 100 μl diluted E. coli in LB); “inhibited” in the test with E. coli (strain 0:111) (5 mg immobilized magnetic particles, 100 μl diluted E. coli in LB); “prevented bacterial growth” in the test on E. coli (strain 0:111) (50, 25 and 10 mg/ml concentrations of immobilized magnetic particles).
KRWSWKK-NH2 [Peptide P1-63]: the “Endpoint LAL activity peptide” value with LPS S. Minnesota Re595 is reported as “NEGATIVE”. Further, the “Local Shwartzmann reaction” value in the test on LPS Re595 is given as “NEGATIVE”.
Turning to RFWQRNIRIRR-NH2 [Peptide P2-18], the “Endpoint LAL activity peptide” value in the test with LPS S. Minnesota Re595 is given as “NEGATIVE”. The “Local Shwartzmann reaction” value with LPS Re595 is “NEGATIVE”.
RWQRNIRIRR-NH2 [Peptide P2-19]: the “Endpoint LAL activity peptide” value in the test on LPS S. Minnesota Re595 is reported as “NEGATIVE”. Also, in the test on LPS Re595, the “Local Shwartzmann reaction” value was “NEGATIVE”.
As to penicilin, in the test with MonoMac6 cells, the “release of TNFα / stimulation of the monocytes” value was “high stimulation of the monocytes”.
Regarding polymyxin B [PmB, reference compound], the “Endpoint LAL activity peptide” value in the test with LPS S. Minnesota Re595 is “NEGATIVE”. Further, the “protection against endotoxic shock (mortality)” value in the test on E. coli LPS was “did not confer significant protection”. The “Local Shwartzmann reaction” value with LPS Re595 is given as “NEGATIVE”. The “release of TNFα / stimulation of the monocytes” value with MonoMac6 cells is recorded as “significantly inhibited the release of TNFα”.
